Where a name gives a salt, the structure may show the parent alone. Read-outs that look alike come from different tables or passages of the source.

As usually defined, the ED50 is the dose at which the effect has come halfway, by size or by number of responders. As a reminder, the Ki is a measure of affinity in units of concentration, obtained from inhibition or displacement.

The target of experiment [1] is T1, peripheral opioid receptors (Mus musculus, UniProt P42866).
T1 construct: Mice maintained (6 mice/cage) on 0.01M saccharin water with 1 g/1 morphine sulfate; from tissue; host or cells: living morphine-maintained mice (in vivo test; endogenous receptor)
Nature of the experiment: precipitated diarrhea in morphine-maintained mice (peripheral opioid activity) and comparison with the writhing test. As to conditions: for Ratio (AD50 mouse writhing test / ED50 mouse diarrhea test): higher ratio = greater relative antagonism of peripheral opioid receptors; for ED50: mouse, 0.5 h, morphine-maintained mice, antagonist subcutaneous or oral, 30 min observation. It counts as in vivo. The gist of the method: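 Morphine-dependent mice (1 g/l morphine sulfate in drinking water ≥10 days, withdrawn 45 min before dosing) received antagonist subcutaneously or orally, 5 mice/dose. Diarrhea (and jumping) were scored over 30 min and doses lowered to find the diarrhea threshold. Peripheral selectivity was taken as writhing AD50 divided by diarrhea ED50.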
On the technique in general: In writhing tests, fewer writhes than in controls are read as antinociception.

For experiment [2], the target named is T2, opioid receptor (Mus musculus, UniProt P42866).
T2 construct: Five CF-1 male mice (Charles River, Portage, Mich.); from tissue; host or cells: living CF-1 male mice (in vivo test; endogenous receptor)
The experiment can be described thus: mouse writhing analgesis test: block of morphine-induced analgesia. Also on record: unit not given here. It counts as in vivo, CF-1 male mice. As to conditions: dose of antagonist that reduced the inhibition of writhing produced by 1.25 mg/kg morphine sulfate to 50%; subcutaneous, 20 min before acetic acid. In a few lines:
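Male CF-1 mice (~20 g, fasted overnight, n=5) dosed subcutaneously 20 min before i.p. 0.6% acetic acid; writhes counted for 10 min starting 5 min post-injection. Antagonism measured as blockade of morphine-induced inhibition of writhing, percent versus vehicle controls; ED50 defined as 50% writhing inhibition.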

The target in experiment [3] is T3, mu receptor (Rattus norvegicus, UniProt P33535).
T3 construct: rat whole brain minus cerebellum for mu was homogenized; from tissue; host or cells: brain of male Sprague Dawley rats, whole brain minus cerebellum, homogenate fraction
Nature of the experiment: opioid receptor binding assay, [3H] NAL (tritiated naloxone), mu receptor. Also noted: species or system rat (Male Sprague Dawley), brain minus cerebellum. The gist of the method:
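Displacement of [3H]naloxone was measured on rat whole brain minus cerebellum membranes, preincubated 20 min and incubated 20 min at 37° C, with filtration separating bound ligand. Ki was derived from IC50 and ligand KD. Percent displacement was also recorded at 10 nM and 100 nM test compound.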

The mark [4] stands for this setting: 20 min, read-out: % displacement at 10 nM, 10 nM test compound, [3H] naloxone 0.5 nM.
The mark [5] stands for this setting: 20 min, read-out: % displacement at 100 nM, 100 nM test compound, [3H] naloxone 0.5 nM.
Setting [6] is: 20 min, read-out: % displacement at 100 nM.
Where [7] appears, read: 20 min, 10 nM test compound, [3H] naloxone 0.5 nM, read-out: % displacement at 10 nM.

T3 sequence (P33535 whole entry): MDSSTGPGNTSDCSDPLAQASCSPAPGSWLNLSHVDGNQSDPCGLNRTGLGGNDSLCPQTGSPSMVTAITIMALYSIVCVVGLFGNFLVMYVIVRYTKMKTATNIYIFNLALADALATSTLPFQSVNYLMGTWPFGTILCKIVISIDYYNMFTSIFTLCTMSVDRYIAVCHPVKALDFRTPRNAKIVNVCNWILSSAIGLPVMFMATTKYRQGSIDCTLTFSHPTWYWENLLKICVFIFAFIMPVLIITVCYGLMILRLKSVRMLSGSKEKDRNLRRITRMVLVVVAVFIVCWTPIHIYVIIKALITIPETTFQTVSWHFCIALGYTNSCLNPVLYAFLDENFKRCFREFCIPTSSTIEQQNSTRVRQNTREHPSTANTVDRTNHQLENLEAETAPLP
T1 sequence (P42866 whole entry): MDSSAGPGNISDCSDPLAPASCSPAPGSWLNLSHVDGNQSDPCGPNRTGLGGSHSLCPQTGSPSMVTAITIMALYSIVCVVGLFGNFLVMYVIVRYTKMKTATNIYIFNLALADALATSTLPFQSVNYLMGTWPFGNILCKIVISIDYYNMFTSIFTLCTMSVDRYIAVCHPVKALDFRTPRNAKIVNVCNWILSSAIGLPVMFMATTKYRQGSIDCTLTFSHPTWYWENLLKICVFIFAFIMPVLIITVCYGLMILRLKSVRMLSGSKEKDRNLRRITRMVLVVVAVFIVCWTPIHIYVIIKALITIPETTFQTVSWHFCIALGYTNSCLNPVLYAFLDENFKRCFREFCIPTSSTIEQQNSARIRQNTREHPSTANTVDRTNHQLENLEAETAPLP
T2 sequence (P42866 whole entry): as above

As to `C[C@H]1CN(CCC(C(=O)NCCC(=O)OCc2ccccc2)C2CCCCC2)CC[C@@]1(C)c1cccc(O)c1` (relative stereo) [Example 25, 3-[[2-cyclohexyl-4-[4-(3-hydroxyphenyl)-3,4-dimethyl-1-piperidinyl]-1-oxobutyl]amino]propanoic acid phenylmethyl ester hydrochloride monohydrate], in experiment [1], the “Ratio (AD50 mouse writhing test / ED50 mouse diarrhea test)” value was found to be 40 and it took a dose of 0.29 mg/kg to reach the 50% effect level (ED50). In experiment [2], this molecule had an AD50 of 11.5. The molecule also returned a Ki in experiment [3] of 0.22 nM. Besides, in experiment [3] (setting [4]), the inhibition at 0.01 µM was 100%. Further, the inhibition at 0.1 µM in experiment [3] (setting [5]) was 100%.
As for `C[C@H]1CN(CC(Cc2ccccc2)C(=O)NCC(=O)O)CC[C@@]1(C)c1cccc(O)c1` (stereo partly drawn) [Example 44, 2-[[3-[4-(3-hydroxyphenyl)-3,4-dimethyl-1-piperidinyl]-1-oxo-2-(phenylmethyl)propyl]-amino]acetic acid monohydrate], in experiment [1], the “Ratio (AD50 mouse writhing test / ED50 mouse diarrhea test)” value is listed as more than 266 and the 50% effect level (ED50) was put at a dose of 0.15 mg/kg. In experiment [2], this molecule showed an AD50 of more than 40. For the same molecule, the inhibition at 0.01 µM in experiment [3] (20 min, read-out: % displacement at 10 nM) was determined as 87%. Moreover, the inhibition at 0.1 µM in experiment [3] (setting [6]) was found to be 94%. Moreover, in experiment [3] ([3H] naloxone 0.5 nM, pH 7.4, 37° C., 20 min, read-out: Ki), the inhibitory constant (Ki) was found to be 0.89 nM.
For the molecule `C[C@H]1CN(CC(CC2CCCCC2)C(=O)NCCCC(N)=O)CC[C@@]1(C)c1cccc(O)c1` (stereo partly drawn) [Example 40, 4-[[1-oxo-2-(cyclohexylmethyl)-3-[4-(3-hydroxyphenyl)-3,4-dimethyl-1-piperidinyl]propyl]-amino]butanamide hydrochloride], in experiment [1], the “Ratio (AD50 mouse writhing test / ED50 mouse diarrhea test)” value is recorded as 3.5 and the ED50 worked out at 1.3 mg/kg. This molecule also gave an AD50 in experiment [2] of 4.5. The molecule also showed a Ki in experiment [3] of 0.75 nM. In experiment [3] (setting [4]), the inhibition at 0.01 µM turned out to be 95%. Moreover, in experiment [3] (setting [5]), the inhibition at 0.1 µM was found to be 100%.
For `CNC(=O)CCNC(=O)C(CCN1CC[C@@](C)(c2cccc(O)c2)[C@@H](C)C1)C1CCCCC1` (relative stereo) [Example 18, N-[3-(methylamino)-3-oxopropyl]-4-[4-(3-hydroxyphenyl)-3,4-dimethyl-1-piperidinyl]-2-cyclohexyl-butanamide monohydrochloride], in experiment [1], the “Ratio (AD50 mouse writhing test / ED50 mouse diarrhea test)” value is more than 888 and the 50% effect level (ED50) was put at a dose of 0.045 mg/kg. The same molecule came in with an AD50 in experiment [2] of more than 40. The inhibitory constant (Ki) in experiment [3] stood at 0.43 nM. For the same molecule, in experiment [3] (setting [4]), the inhibition at 0.01 µM turned out to be 97%.
For `CCOC(=O)CNC(=O)C(CCN1CC[C@@](C)(c2cccc(O)c2)[C@@H](C)C1)c1ccccc1` (relative stereo) [Example 11, 2-[[4-4-(3-hydroxyphenyl)-3,4-dimethyl-1-piperidinyl]-1-oxo-2-phenylbutyl]amino]-acetic acid ethyl ester monohydrochloride], in experiment [1], the “Ratio (AD50 mouse writhing test / ED50 mouse diarrhea test)” value is 141 and the ED50 stood at 0.017 mg/kg. Moreover, in experiment [2], the AD50 came to 2.4. In addition, the affinity in experiment [3], expressed as Ki, was 0.3 nM. For the same molecule, the inhibition at 0.01 µM in experiment [3] (setting [4]) turned out to be 81%. Besides, the inhibition at 0.1 µM in experiment [3] (setting [5]) was determined as 89%.
Consider `CC(=O)OC(C)OC(=O)CNC(=O)C(Cc1ccccc1)CN1CC[C@@](C)(c2cccc(O)c2)[C@@H](C)C1` (relative stereo) [Example 94], for which, in experiment [1], the “Ratio (AD50 mouse writhing test / ED50 mouse diarrhea test)” value came out at 2222 and the ED50 came to 0.009 mg/kg. The molecule also yielded an AD50 in experiment [2] of 20. For the same molecule, the inhibition at 0.01 µM in experiment [3] (setting [7]) was determined as 76%. For the same molecule, the inhibition at 0.1 µM in experiment [3] (20 min, 100 nM test compound, [3H] naloxone 0.5 nM, read-out: % displacement at 100 nM) is 95%.
With `C[C@H]1CN(CC(Cc2ccccc2)C(=O)NCC(=O)NCC2CCCCC2)CC[C@@]1(C)c1cccc(O)c1` (relative stereo) [Example 91], in experiment [1], the “Ratio (AD50 mouse writhing test / ED50 mouse diarrhea test)” value is recorded as 8 and the ED50 was found to be 0.5 mg/kg. Also, the AD50 in experiment [2] is given as 4.0. For the same molecule, the inhibition at 0.01 µM in experiment [3] (setting [7]) was determined as 69%. Besides, the inhibition at 0.1 µM in experiment [3] (setting [6]) stood at 94%.

(Values after patent publication US5250542A, “Peripherally selective piperidine carboxylate opioid antagonists” (Eli Lilly and Company, priority 1992, dated 1993).)
